US8846411B2, “Derivatives, reagents, and immunoassay for detecting levetiracetam” (Microgenics Corporation, priority 2009, dated 2014)

Tests used:
[1] = cited from earlier work
[2] = tested on: anti-levetiracetam antibody prepared with immunogen 18a; experiment: Antibody avidity by ELISA binding inhibition study with levetiracetam; details: Sheep No. 5479 antibody
Procedure: The avidity of the anti-levetiracetam antibody prepared with immunogen 18a for various levetiracetam derivatives were determined by a binding inhibition study. Samples were prepared in 1 mL of PBS at pH 7.4 with 0.1% BSA. A composition having 30% Bmax titer or 50% Bmax titer was used to divide the titer value as obtained in Example 38 into approximately half the titer value. Using 30% Bmax, an antibody titer of 1:10000 was diluted to […] during the sample preparation stage. About 50 μL of levetiracetam at different concentrations or calibrator values, (0, 5, 10, 20, 40, 80 μg/ml) were applied to a plate as prepared in accordance with Example 38. About 50 μL of the diluted antibody was dispensed into the plate, and the compositions in the plate were mixed for 1 min on a horizontal plate shaker. No levetiracetam or anti-levetiracetam antibody was added to the first row of the plate, which served as a negative control. A second row with anti-levetiracetam antibody but without levetiracetam was used as the positive control. The plate was incubated for 60 min and washed three times with 250 μL of PBS at pH 7.4 with 0.05% Tween 20. About 125 μL of a diluted derivative such as 18b or 19 in PBS at pH 7.4 was added to each well of the plate. The plate was incubated for 60 min at 37° C. and washed as described above. Approximately 125 μL of ABTS substrate was added to each well of the plate and incubated for 20 min.

Row | B/Bo ([2]; Levetiracetam 5 μg/mL, Antigen 18b) | B/Bo ([2]; Levetiracetam 5 μg/mL, Antigen 19) | B/Bo ([2]; Levetiracetam 10 μg/mL, Antigen 18b) | B/Bo ([2]; Levetiracetam 10 μg/mL, Antigen 19) | B/Bo ([2]; Levetiracetam 20 μg/mL, Antigen 18b) | B/Bo ([2]; Levetiracetam 20 μg/mL, Antigen 19) | B/Bo ([2]; Levetiracetam 40 μg/mL, Antigen 18b) | B/Bo ([2]; Levetiracetam 40 μg/mL, Antigen 19) | B/Bo ([2]; Levetiracetam 80 μg/mL, Antigen 18b) | B/Bo ([2]; Levetiracetam 80 μg/mL, Antigen 19) | Compound | nominal therapeutic range ([1]; in vivo) | optimal trough serum/plasma concentration range ([1]; trough, serum/plasma) | given dose excreted unchanged in urine ([1]; urine, elimination via the kidney) | share of the administered dose accounted for by metabolite excreted in urine ([1]; urine, after administration of LEV)
1 | 0.96 | 0.98 | 0.98 | 0.91 | 0.90 | 0.86 | 0.88 | 0.78 | 0.87 | 0.77 | CC[C@@H](C(N)=O)N1CCCC1=O [Levetiracetam, (−)-(S)-α-ethyl-2-oxo-1-pyrrolidine acetamide] | 6 to 20 µg/mL | 10 to 60 mg/L | approximately 64% | –
2 | – | – | – | – | – | – | – | – | – | – | O=C(O)CCCN1CCCC1=O [2-pyrrolidone-N-butyric acid] | – | – | – | approximately 27%
